From article PMC5893132, “Selective inhibition of histamine-evoked Ca^2+ signals by compartmentalized cAMP in human bronchial airway smooth muscle cells” (Cell Calcium, 2018)
Counter-ions that a name gives are not always drawn.

Columns and labels:
[1] = tested on: intracellular Ca^2+ stores of hBASMCs; assay: Ca2+ content of intracellular stores, by ionomycin in Ca2+-free HBS; assay type: cell-based, human; details: isoproterenol, forskolin 10 μM, 5 min, 2-APB 5 min, higher concentrations needed than for inhibition of GPCR-evoked signals
[2] = tested on: intracellular cAMP in hBASMCs; assay: Intracellular cAMP in hBASMCs by mass spectrometry; assay type: cell-based, human
Protocol: These methods were modified from. Confluent cultures of hBASMCs in 48-well plates were serum-deprived (6–24 h) and the medium was then replaced with HBSS (300 μL) containing HEPES (5 mM) and BSA (0.1%, w/v). Cells were stimulated at 20 °C, and reactions were terminated by aspiration of the medium and addition of acetonitrile (170 μL) containing dibutyryl cAMP (0.5 μM, to provide an internal standard). The plates were centrifuged (1500 xg, 15 min, 4 °C), supernatants (158 μL) were transferred to a 96-well, glass-coated plate (Thermo Scientific), and aqueous NH4HCO3 (pH 9.4, 93 μL) was added to each sample. After mixing and centrifugation (1500 xg, 15 min, 4 °C), samples were stored at 4 °C before analysis. Samples were analyzed by liquid chromatography tandem mass spectrometry (LC–MS/MS) using a Waters Acquity UPLC and a Sciex 5500 mass spectrometer equipped with an electrospray ionization source. ATP, ADP, AMP and cAMP were analyzed using a ZIC-pHILIC polymeric column (5-μm particle size, […]) maintained at 35 °C. Calibration standards were prepared in the lysis medium containing the internal standard, dibutyryl cAMP (0.5 μM). […] Samples were detected using multiple reaction monitoring in negative ion mode using the following parent-to-daughter mass transitions: cAMP m/z 327.9 → 133.9 (DP −100 V, CE −33 eV), AMP m/z 345.9 → 134.0 (DP −100 V, CE −50 eV), ADP m/z 426.0 → 134.0 (DP −100 V, CE −30 eV), ATP m/z 505.9 → 408.0 (DP −100 V, CE −35 eV), and internal standard dibutyryl cAMP m/z 468.1 → 175.0 (DP −100 V, CE −35 eV). Concentration-effect relationships were fitted to logistic equations for each experiment using GraphPad Prism (version 5, GraphPad Software, La Jolla, CA, USA), from which half-maximally effective drug concentrations (EC50), maximal responses, and Hill slopes were determined. For statistical analyses, maximal responses, Hill slopes and pEC50 (-logEC50) or pIC50 (-log of the half-maximal inhibitory concentration, IC50) values determined for individual experiments were pooled for statistical analysis. […]

CC(C)NC[C@H](O)c1ccc(O)c(O)c1 [isoproterenol, (−)-isoproterenol hydrochloride]
effect on the Ca2+ content of the intracellular stores [1]: Neither isoproterenol nor forskolin (10 μM, 5 min) affected
EC50 ([2]; Homo sapiens, 5 min, MS analyses, n = 3, read-out: pEC50 for cAMP accumulation (converted)): 132 nM
intracellular cAMP associated with matched inhibition of Ca2+ signals, relative to IBMX ([2]; isoproterenol (5 min) vs IBMX (20 min), histamine 10 μM, cAMP by MS): ~5.4 fold
